Among the data in patent US8952169B2 (Genentech, Inc., priority 2012, dated 2015) are IC50 values, retold here.

For experiment [1], the target named is T1, hNav1.7 (Homo sapiens (Human), UniProt Q15858). The experiment can be described thus: Patch voltage clamp electrophysiology (PatchXpress), HEK-293 cells, inactivated state block. The experiment is classed as cell-based. The conditions noted are these: HEK-293 cells, β1 coexpressed; inactivated state, holding −60 mV; read-out: EP_PX 293 hNav1.7 (IC50).
Experiment [2] deals with T1, hNav1.7. The experiment can be described thus: Tritiated aryl sulfonamide binding to membranes from cells expressing hNav1.7 and the β1 subunit (competitive binding). The conditions noted are these: membranes with hNav1.7 and β1 subunit; [3H]compound displacement, 18 h, room temperature; read-out: NaV1.7 395 Memb Binding (IC50). As to the method: Tritiated Aryl Sulfonamide Binding to Membranes Isolated from Cells that Heterologously Express hNav1.7 and the β1 Subunit
Preparation of membranes containing recombinantly expressed sodium channels: Frozen recombinant cell pellets were thawed on ice and diluted to 4 times the cell pellet weight with ice cold 50 mM Tris HCl, pH 7.4 buffer. The cell suspensions were homogenized on ice using a motorized glass dounce homogeniser. Homogenates were further diluted 8.4 times with ice cold 50 mM Tris HCl, pH 7.4 buffer and then centrifuged at 200×g at 4° C. for 15 min. The supernatants were collected and centrifuged at 10000×g at 4° C. for 50 min. The pellets were then re-suspended in 100 mM NaCl, 20 mM Tris HCl, pH 7.4 buffer containing 1% v/v protease inhibitors (Calbiochem) and re-homogenized on ice. The homogenized membranes were then processed through a syringe equipped with a 26 gauge needle. Protein concentrations were determined by Bradford Assay and the membranes were stored at −80° C.
Radioligand Binding Studies: Saturation experiments. A representative compound of formula (I) was tritiated. Three tritiums were incorporated in place of methyl hydrogens to generate [^3H]compound. Binding of this radioligand was preformed in 5 mL borosilicate glass test tubes at room temperature. Binding was initiated by adding membranes to increasing concentrations of [^3H]compound in 100 mM NaCl, 20 mM Tris HCl, pH 7.4 buffer containing 0.01% w/v bovine serum albumin (BSA) for 18 h. Non-specific binding was determined in the presence of 1 μM unlabelled compound. After 18 h, the reactants were filtered through GF/C glass fiber filters presoaked in 0.5% w/v polyethylene imine. […] [^3H]compound bound to filters was quantified by liquid scintillation counting.
Competitive binding experiments. Binding reactions were preformed in 96-well polypropylene plates at room temperature for 18 h. In 360 μL, membranes were incubated with 100 μM [^3H]compound and increasing concentrations of Test Compound. Non-specific binding was defined in the presence of 1 μM unlabelled compound. Reactions were transferred and filtered through 96-well glass fiber/C filter plates presoaked with 0.5% polyethylene imine. The filtered reactions were washed 5 times with 200 L ice cold buffer containing 0.25% BSA. Bound radioactivity was determined by liquid scintillation counting.
Data Analysis: For saturation experiments, non-specific binding was subtracted from total binding to provide specific binding and these values were recalculated in terms of pmol ligand bound per mg protein. Saturation curves were constructed and dissociation constants were calculated using the single site ligand binding model: Beq=(Bmax*X)/(X+Kd), where Beq is the amount of ligand bound at equilibrium, Bmax is the maximum receptor density, Kd is the dissociation constant for the ligand, and X is the free ligand concentration.

T1 sequence (Q15858 whole entry, looked up): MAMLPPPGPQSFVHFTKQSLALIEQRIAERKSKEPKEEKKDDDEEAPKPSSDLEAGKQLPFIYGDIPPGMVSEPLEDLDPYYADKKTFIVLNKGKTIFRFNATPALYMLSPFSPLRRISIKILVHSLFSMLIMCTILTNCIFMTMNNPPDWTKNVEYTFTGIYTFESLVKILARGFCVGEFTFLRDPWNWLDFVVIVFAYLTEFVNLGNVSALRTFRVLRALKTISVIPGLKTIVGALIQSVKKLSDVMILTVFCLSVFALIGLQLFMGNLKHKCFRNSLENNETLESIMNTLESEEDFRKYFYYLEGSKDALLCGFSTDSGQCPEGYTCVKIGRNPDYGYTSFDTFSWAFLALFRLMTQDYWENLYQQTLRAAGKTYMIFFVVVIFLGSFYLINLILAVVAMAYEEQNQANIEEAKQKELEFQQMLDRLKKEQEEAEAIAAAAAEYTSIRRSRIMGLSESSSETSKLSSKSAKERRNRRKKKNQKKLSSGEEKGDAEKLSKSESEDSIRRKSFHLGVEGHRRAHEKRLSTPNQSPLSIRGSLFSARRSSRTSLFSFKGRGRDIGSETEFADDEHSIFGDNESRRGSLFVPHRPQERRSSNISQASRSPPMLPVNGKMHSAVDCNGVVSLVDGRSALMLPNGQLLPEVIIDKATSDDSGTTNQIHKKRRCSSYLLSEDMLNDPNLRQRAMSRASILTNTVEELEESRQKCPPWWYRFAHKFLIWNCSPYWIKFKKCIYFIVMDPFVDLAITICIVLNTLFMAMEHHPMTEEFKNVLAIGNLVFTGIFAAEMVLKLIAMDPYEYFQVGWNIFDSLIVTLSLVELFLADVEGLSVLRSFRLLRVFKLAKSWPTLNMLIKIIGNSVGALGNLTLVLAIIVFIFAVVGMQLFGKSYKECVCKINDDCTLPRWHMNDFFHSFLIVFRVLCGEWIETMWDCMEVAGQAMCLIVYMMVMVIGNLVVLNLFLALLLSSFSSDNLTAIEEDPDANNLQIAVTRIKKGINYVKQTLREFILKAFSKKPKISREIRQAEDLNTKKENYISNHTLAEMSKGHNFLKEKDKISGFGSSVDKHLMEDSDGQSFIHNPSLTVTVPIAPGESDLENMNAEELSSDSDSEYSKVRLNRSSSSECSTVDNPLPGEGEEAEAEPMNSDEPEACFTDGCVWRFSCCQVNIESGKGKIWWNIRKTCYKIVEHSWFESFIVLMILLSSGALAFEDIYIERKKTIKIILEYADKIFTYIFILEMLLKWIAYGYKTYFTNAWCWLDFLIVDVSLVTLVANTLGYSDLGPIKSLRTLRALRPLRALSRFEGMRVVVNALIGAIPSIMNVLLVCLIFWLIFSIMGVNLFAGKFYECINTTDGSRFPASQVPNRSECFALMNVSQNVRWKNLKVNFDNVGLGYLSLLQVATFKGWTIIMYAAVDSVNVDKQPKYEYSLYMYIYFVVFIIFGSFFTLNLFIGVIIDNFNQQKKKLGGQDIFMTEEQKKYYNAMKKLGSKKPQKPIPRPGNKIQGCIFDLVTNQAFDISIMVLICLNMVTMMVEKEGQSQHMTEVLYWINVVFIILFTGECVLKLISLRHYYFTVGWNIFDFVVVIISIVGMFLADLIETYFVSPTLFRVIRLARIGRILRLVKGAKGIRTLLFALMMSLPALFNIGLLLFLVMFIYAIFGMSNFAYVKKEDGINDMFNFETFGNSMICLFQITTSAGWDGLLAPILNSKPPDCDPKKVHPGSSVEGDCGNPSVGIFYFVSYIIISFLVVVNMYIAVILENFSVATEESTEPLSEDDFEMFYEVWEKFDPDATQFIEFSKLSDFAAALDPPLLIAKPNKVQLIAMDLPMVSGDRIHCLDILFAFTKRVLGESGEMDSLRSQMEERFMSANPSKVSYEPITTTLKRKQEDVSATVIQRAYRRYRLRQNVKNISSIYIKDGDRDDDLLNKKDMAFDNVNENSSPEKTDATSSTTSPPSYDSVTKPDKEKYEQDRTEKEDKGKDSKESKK
T1 sequence (Q07699 whole entry partner, looked up): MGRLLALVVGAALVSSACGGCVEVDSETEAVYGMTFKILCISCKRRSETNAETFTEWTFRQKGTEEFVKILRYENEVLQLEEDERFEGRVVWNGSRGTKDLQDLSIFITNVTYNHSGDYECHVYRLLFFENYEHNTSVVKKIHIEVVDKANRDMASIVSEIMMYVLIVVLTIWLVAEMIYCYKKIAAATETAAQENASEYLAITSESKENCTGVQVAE

Regarding `O=C(NS(=O)(=O)N1CCC1)c1cc(C2CC2)c(OCC23CC4CC(C2)C(F)(F)C(C4)C3)cc1F`, the IC50 at hNav1.7 [1] was 6 nM; at hNav1.7 [2], 4 nM.

With `N#CC1(COc2cc(F)c(C(=O)NS(=O)(=O)N3CCC3)cc2C2CC2)C2CC3CC(C2)CC1C3` (centres unmarked), the IC50 was found to be 5 nM at hNav1.7 [1] and 9 nM on hNav1.7 [2]. In the case of “4-(adamantan-1-ylmethoxy)-3-chloro-N-(methylsulfonyl)benzamide [Example 12]”, at hNav1.7 [1], the IC50 was 6.9 nM. As to `CNS(=O)(=O)NC(=O)c1cc(Cl)c(OC2C3CC4CC2CC(C(=O)OC)(C4)C3)cc1F` (single isomer, unassigned) [Example 452], the IC50 at hNav1.7 [2] amounted to 7100 nM. Consider `CNS(=O)(=O)NC(=O)c1cc(Cl)c(OC2C3CC4CC2CC(C(=O)OC)(C4)C3)cc1F` (single isomer, unassigned) [Example 453], for which the IC50 at hNav1.7 [2] stood at 950 nM. As to `CS(=O)(=O)NC(=O)c1cc(Cl)c(OC2C3CC4CC(C3)CC2C4)cc1F` (centres unmarked) [Example 9], at hNav1.7 [2], the half-maximal inhibitory concentration (IC50) came to 40 nM. `CS(=O)(=O)NC(=O)c1cc(Cl)c(OCCC23CC4CC(CC(C4)C2)C3)cc1F` [Example 11]: the IC50 on hNav1.7 [2] turned out to be 29 nM.

In the case of `CS(=O)(=O)NC(=O)c1ccc(CNC23CC4CC(CC(C4)C2)C3)c(Cl)c1` [Example 17], the 50% inhibitory concentration (IC50) on hNav1.7 [2] was 10000 nM.

Turning to `CS(=O)(=O)NC(=O)c1ccc(OCC23CC4CC(CC(O)(C4)C2)C3)c(Cl)c1` [Example 24], the half-maximal inhibitory concentration (IC50) on hNav1.7 [2] turned out to be 10000 nM. The same measure, in the same setting: with `CS(=O)(=O)NC(=O)c1cc(Cl)c(OCC2CCC3(CC2)CC3)cc1F` [Example 50] the figure was 29 nM. Take `O=C(NS(=O)(=O)N1CCC1)c1ccc(OCC23CC4CC(CC(C4)C2)C3)c(C(F)(F)F)c1` [Example 53]: the half-inhibitory concentration (IC50) on hNav1.7 [2] worked out at 100 nM.

On to `COc1cc(OCC23CC4CC(CC(C4)C2)C3)c(Cl)cc1C(=O)NS(C)(=O)=O` [Example 56], for which the IC50 at hNav1.7 [2] was 480 nM. In the case of `CS(=O)(=O)NC(=O)c1ccc(OCC23CC4CC(CC(C4)C2)C3)c(C(F)(F)F)c1` [Example 62], the concentration for half-maximal inhibition (IC50) on hNav1.7 [2] was determined as 58 nM. In the case of `CN(C)S(=O)(=O)NC(=O)c1cc(Cl)c(OCC2CCC3(CC2)CC3)cc1F` [Example 88, 5-chloro-N-(dimethylsulfamoyl)-2-fluoro-4-(spiro[2.5]octan-6-ylmethoxy)benzamide], the half-inhibitory concentration (IC50) on hNav1.7 [2] stood at 121 nM. Same read-out and setting: the figure for `CN(C)S(=O)(=O)NC(=O)c1cc(Cl)c(OCC23CC4CC(CC(F)(C4)C2)C3)cc1F` [Example 89, 5-chloro-N-(dimethylsulfamoyl)-2-fluoro-4-[(3-fluoro-1-adamantyl)methoxy]benzamide] is 234 nM; for `CN(C)S(=O)(=O)NC(=O)c1cc(Cl)c(OCC2CCCCCC2)cc1F` [Example 100] it is 299 nM. For `CS(=O)(=O)NC(=O)c1cc(Cl)c(OC2CCC(C(F)(F)F)CC2)cc1F` (centres unmarked) [Example 128], the IC50 at hNav1.7 [2] was found to be 291 nM. The same measure, in the same setting: with `CS(=O)(=O)NC(=O)c1cc(Cl)c(OC2CCC3(CCCC3)CC2)cc1F` [Example 133] the figure was 125 nM; with `CN(C)S(=O)(=O)NC(=O)c1cc(Cl)c(OC2CCC(C(F)(F)F)CC2)cc1F` (centres unmarked) [Example 138], 1120 nM. As for `CN(C)S(=O)(=O)NC(=O)c1cc(Cl)c(OCCC2CCC2)cc1F` [Example 140], the IC50 on hNav1.7 [2] worked out at 885 nM.

Regarding `CS(=O)(=O)NC(=O)c1cc(Cl)c(OCC2(F)C3CC4CC(C3)CC2C4)cc1F` (centres unmarked) [Example 176], the IC50 at hNav1.7 [2] came to 50 nM. `CNS(=O)(=O)NC(=O)c1cnc(OCC23CC4CC(CC(C4)C2)C3)c(C2CC2)c1` [Example 178]: the concentration for half-maximal inhibition (IC50) at hNav1.7 [2] turned out to be 250 nM. The same measure, in the same setting: the figure for `CS(=O)(=O)NC(=O)c1ccc(C2C3CC4CC(C3)CC2C4)c(Cl)c1` (centres unmarked) [Example 180] is 1200 nM. Take `O=C(NS(=O)(=O)N1CC(F)C1)c1cc(C2CC2)c(OCC2CCCCC2)cc1F` [Example 210]: the IC50 at hNav1.7 [2] came to 8 nM. `O=C(NS(=O)(=O)C1CCC1)c1cc(C2CC2)c(OCC23CC4CC(CC(C4)C2)C3)cc1F` [Example 211]: on hNav1.7 [2], the IC50 stood at 2 nM.

Turning to `CC(O)CS(=O)(=O)NC(=O)c1ccc(OCC23CC4CC(CC(C4)C2)C3)cc1F` (centres unmarked) [Example 215], at hNav1.7 [2], the IC50 is 990 nM. In the case of `O=C(NS(=O)(=O)N1CCC1)c1cc(I)c(OCC23CC4CC(CC(C4)C2)C3)cc1F` [Example 222], on hNav1.7 [2], the IC50 was 9 nM. With `O=C(NS(=O)(=O)N1CC(F)C1)c1cc(C2CC2)c(OCC2CCC(F)(F)CC2)cc1F` [Example 226], the half-maximal inhibitory concentration (IC50) on hNav1.7 [2] is 30 nM. Regarding `O=C(NS(=O)(=O)N1CC2(COC2)C1)c1cc(C2CC2)c(OCC23CC4CC(CC(C4)C2)C3)cc1F` [Example 237], the concentration for half-maximal inhibition (IC50) on hNav1.7 [2] was found to be 67 nM. In the case of `O=C(NS(=O)(=O)C1CC1)c1cc(C2CC2)c(OCC2CCCC2)cc1F` [Example 242], the IC50 at hNav1.7 [2] is 20 nM. As for `O=C(NS(=O)(=O)C1CC1)c1cc(Cl)c(OCC2CC3CC3C2)cc1F` (centres unmarked) [Example 266], the IC50 at hNav1.7 [2] stood at 49 nM. The same measure, in the same setting: with `O=C(NS(=O)(=O)C1CC1)c1cc(Cl)c(OCC2CC3C(C2)C3(F)F)cc1F` (centres unmarked) [Example 322] the figure was 81 nM. On to `C/C=C/c1cc(C(=O)NS(=O)(=O)N2CCC2)c(F)cc1OCC12CC3CC(CC(C3)C1)C2` [Example 399], for which, on hNav1.7 [2], the concentration for half-maximal inhibition (IC50) was found to be 6 nM. For `O=C(NS(=O)(=O)C1CC1)c1cc(C2CC2)c(OCC23CCCCC2C3(F)F)cc1F` (centres unmarked) [Example 433, 5-cyclopropyl-N-cyclopropylsulfonyl-4-[(7,7-difluoronorcaran-1-yl)methoxy]-2-fluoro-benzamide], the IC50 on hNav1.7 [2] stood at 4 nM. As for `O=C(NS(=O)(=O)N1CCC1)c1cc(C2CC2)c(OCC23CCCCC2C3(F)F)cc1F` (centres unmarked) [Example 434], the IC50 at hNav1.7 [2] was 11 nM. Turning to `O=C(NS(=O)(=O)C1CC1)c1cc(C2CC2)c(OC[C@H]2CC[C@H](C(F)(F)F)CC2)cc1F` [Example 435, 5-cyclopropyl-N-(cyclopropylsulfonyl)-2-fluoro-4-(((1r,4r)-4-(trifluoromethyl)cyclohexyl)methoxy)benzamide], the IC50 at hNav1.7 [2] came to 3 nM. On the same count and under the same terms, the figure for `O=C(NS(=O)(=O)N1CCC1)c1cc(C2CC2)c(OC[C@H]2CC[C@H](C(F)(F)F)CC2)cc1F` [Example 436, N-(azetidin-1-ylsulfonyl)-5-cyclopropyl-2-fluoro-4-(((1r,4r)-4-(trifluoromethyl)cyclohexyl)methoxy)benzamide] is 9 nM; for `CS(=O)(=O)NC(=O)c1cc(C2CC2)c(OC2CN(C(c3ccccc3)c3ccccc3)C2)cc1F` [Example 439, 4-(1-benzhydrylazetidin-3-yloxy)-5-cyclopropyl-2-fluoro-N-(methylsulfonyl)benzamide] it is 28 nM. For `CCS(=O)(=O)NC(=O)c1cc(C2CC2)c(OCC2CN(C(c3ccccc3)c3ccccc3)C2)cc1F` [Example 441, 4-((1-benzhydrylazetidin-3-yl)methoxy)-5-cyclopropyl-N-(ethylsulfonyl)-2-fluorobenzamide], at hNav1.7 [2], the IC50 was found to be 10 nM. For the molecule `CC1(COc2cc(F)c(C(=O)NS(=O)(=O)N3CC(F)C3)cc2C2CC2)CCCCC1` [Example 447, 5-cyclopropyl-2-fluoro-N-((3-fluoroazetidin-1-yl)sulfonyl)-4-((1-methylcyclohexyl)methoxy)benzamide], the half-maximal inhibitory concentration (IC50) at hNav1.7 [2] was determined as 4.2 nM. On to `O=C(NS(=O)(=O)N1CCC1)c1cc(C2CC2)c(OCC2CC3CC3C2)cc1F` (centres unmarked) [Example 454], for which the IC50 on hNav1.7 [2] is 18 nM. Same read-out and setting: the figure for “trans-5-cyclopropyl-N-(cyclopropylsulfonyl)-2-fluoro-4-((4-(trifluoromethyl)-cyclohexyl)methoxy)benzamide [Example 259]” is 20 nM.
